Reference: US20170050957A1, “4-AMINO-6-(HETEROCYCLIC)PICOLINATES AND 6-AMINO-2-(HETEROCYCLIC)PYRIMIDINE-4-CARBOXYLATES AND THEIR USE AS HERBICIDES” (Dow AgroSciences LLC, priority 2013, published 2017)
Where two headings read alike, the source gives them in different places.

How the values were obtained:
[1] = tested on: Key Broadleaf Weed and Crop Species; test: Post-emergent Test II herbicidal activity (Table 15); format: in vivo; conditions: post-emergence, 336 h, 14 d; for pest or weed control at 35 g/ha: 35 g ai/ha; for pest or weed control at 70 g/ha: 70 g ai/ha; for pest or weed control at 140 g/ha: 140 g ai/ha
Method in brief: (§1)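 Visual injury rating (0 = none, 100 = complete kill) taken 14 d after treatment, relative to untreated plants. Compounds in acetone/DMSO with crop oil concentrate and Triton X-155 were track-sprayed at 187 L/ha onto seedlings at the first-second true leaf stage.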

[2] = tested on: Key Grass and Sedge Weeds as well as Grass Crops; test: Post-emergent Test II herbicidal activity (Table 16); format: in vivo; conditions: post-emergence, 336 h, 14 d; for pest or weed control at 35 g/ha: 35 g ai/ha; for pest or weed control at 70 g/ha: 70 g ai/ha; for pest or weed control at 140 g/ha: 140 g ai/ha
Method in brief: as §1

[3] = Abutilon theophrasti, velvetleaf (Abutilon theophrasti), read-out: Visual Growth Reduction (%) 14 Days After Application, ABUTH
[4] = Amaranthus retroflexus, redroot pigweed (Amaranthus retroflexus), read-out: Visual Growth Reduction (%) 14 Days After Application, AMARE
[5] = Brassica napus, oilseed rape, canola (Brassica napus), read-out: Visual Growth Reduction (%) 14 Days After Application, BRSNN
[6] = Chenopodium album, lambsquarters (Chenopodium album), read-out: Visual Growth Reduction (%) 14 Days After Application, CHEAL
[7] = Euphorbia heterophylla, wild poinsettia (Euphorbia heterophylla), read-out: Visual Growth Reduction (%) 14 Days After Application, EPHHL
[8] = Helianthus annuus, sunflower (Helianthus annuus), read-out: Visual Growth Reduction (%) 14 Days After Application, HELAN
[9] = Cyperus esculentus, yellow nutsedge (Cyperus esculentus), read-out: Visual Growth Reduction (%) 14 Days After Application, CYPES
[10] = Echinochloa crus-galli, barnyardgrass (Echinochloa crus-galli), read-out: Visual Growth Reduction (%) 14 Days After Application, ECHCG
[11] = Oryza sativa, rice (Oryza sativa), read-out: Visual Growth Reduction (%) 14 Days After Application, ORYSA
[12] = Setaria faberi, giant foxtail (Setaria faberi), read-out: Visual Growth Reduction (%) 14 Days After Application, SETFA
[13] = Triticum aestivum, wheat, spring (Triticum aestivum), read-out: Visual Growth Reduction (%) 14 Days After Application, TRZAS
[14] = Zea mays, maize, corn (Zea mays), read-out: Visual Growth Reduction (%) 14 Days After Application, ZEAMX

COC(=O)c1nc(-c2ccc3cc[nH]c3c2F)c(Cl)c(N)c1Cl [Compound 1.07]
95 to 100%: pest or weed control at 70 g/ha [1, 4] | pest or weed control at 140 g/ha [1, 4] | pest or weed control at 35 g/ha [1, 8] | pest or weed control at 70 g/ha [1, 8] | pest or weed control at 140 g/ha [1, 8]
60 to 74%: pest or weed control at 35 g/ha [1, 7] | pest or weed control at 70 g/ha [1, 7] | pest or weed control at 140 g/ha [1, 7] | pest or weed control at 35 g/ha [2, 12]
0 to 29%: pest or weed control at 35 g/ha [1, 3] | pest or weed control at 70 g/ha [1, 3] | pest or weed control at 140 g/ha [1, 3] | pest or weed control at 35 g/ha [1, 5] | pest or weed control at 70 g/ha [1, 5] | pest or weed control at 140 g/ha [1, 5] | pest or weed control at 35 g/ha [2, 9] | pest or weed control at 70 g/ha [2, 9] | pest or weed control at 140 g/ha [2, 9] | pest or weed control at 35 g/ha [2, 10] | pest or weed control at 70 g/ha [2, 10] | pest or weed control at 140 g/ha [2, 10] | pest or weed control at 35 g/ha [2, 11] | pest or weed control at 70 g/ha [2, 11] | pest or weed control at 140 g/ha [2, 11] | pest or weed control at 35 g/ha [2, 13] | pest or weed control at 70 g/ha [2, 13] | pest or weed control at 140 g/ha [2, 13] | pest or weed control at 35 g/ha [2, 14] | pest or weed control at 70 g/ha [2, 14] | pest or weed control at 140 g/ha [2, 14]
85 to 94%: pest or weed control at 35 g/ha [1, 4] | pest or weed control at 35 g/ha [1, 6] | pest or weed control at 70 g/ha [1, 6] | pest or weed control at 140 g/ha [1, 6]
75 to 84%: pest or weed control at 70 g/ha [2, 12] | pest or weed control at 140 g/ha [2, 12]

COc1c(N)nc(-c2ccc3cc[nH]c3c2F)nc1C(=O)O [Compound 1.35]
75 to 84%: pest or weed control at 35 g/ha [1, 4] | pest or weed control at 35 g/ha [1, 7] | pest or weed control at 70 g/ha [1, 7]
95 to 100%: pest or weed control at 140 g/ha [1, 4] | pest or weed control at 35 g/ha [1, 5] | pest or weed control at 70 g/ha [1, 5] | pest or weed control at 140 g/ha [1, 5] | pest or weed control at 140 g/ha [1, 8]
0 to 29%: pest or weed control at 35 g/ha [1, 3] | pest or weed control at 70 g/ha [1, 3] | pest or weed control at 140 g/ha [1, 3] | pest or weed control at 35 g/ha [1, 6] | pest or weed control at 70 g/ha [1, 6] | pest or weed control at 35 g/ha [2, 9] | pest or weed control at 70 g/ha [2, 9] | pest or weed control at 140 g/ha [2, 9] | pest or weed control at 35 g/ha [2, 10] | pest or weed control at 70 g/ha [2, 10] | pest or weed control at 140 g/ha [2, 10] | pest or weed control at 35 g/ha [2, 11] | pest or weed control at 70 g/ha [2, 11] | pest or weed control at 140 g/ha [2, 11] | pest or weed control at 35 g/ha [2, 12] | pest or weed control at 70 g/ha [2, 12] | pest or weed control at 140 g/ha [2, 12] | pest or weed control at 35 g/ha [2, 13] | pest or weed control at 35 g/ha [2, 14] | pest or weed control at 70 g/ha [2, 14] | pest or weed control at 140 g/ha [2, 14]
45 to 59%: pest or weed control at 140 g/ha [2, 13]
30 to 44%: pest or weed control at 35 g/ha [1, 8] | pest or weed control at 70 g/ha [2, 13]
85 to 94%: pest or weed control at 70 g/ha [1, 4] | pest or weed control at 140 g/ha [1, 6] | pest or weed control at 140 g/ha [1, 7]
60 to 74%: pest or weed control at 70 g/ha [1, 8]

COC(=O)c1nc(-c2ccc(Cl)c3occc23)nc(N)c1OC [Compound 2.21]
60 to 74%: pest or weed control at 70 g/ha [1, 3] | pest or weed control at 140 g/ha [1, 3] | pest or weed control at 35 g/ha [1, 8]
45 to 59%: pest or weed control at 140 g/ha [1, 5]
95 to 100%: pest or weed control at 35 g/ha [1, 4] | pest or weed control at 70 g/ha [1, 4] | pest or weed control at 140 g/ha [1, 4] | pest or weed control at 140 g/ha [1, 6]
85 to 94%: pest or weed control at 35 g/ha [1, 6] | pest or weed control at 70 g/ha [1, 6]
0 to 29%: pest or weed control at 35 g/ha [1, 7] | pest or weed control at 70 g/ha [1, 7] | pest or weed control at 140 g/ha [1, 7] | pest or weed control at 35 g/ha [2, 9] | pest or weed control at 70 g/ha [2, 9] | pest or weed control at 140 g/ha [2, 9] | pest or weed control at 35 g/ha [2, 11] | pest or weed control at 70 g/ha [2, 11] | pest or weed control at 140 g/ha [2, 11] | pest or weed control at 35 g/ha [2, 12] | pest or weed control at 70 g/ha [2, 12] | pest or weed control at 140 g/ha [2, 12] | pest or weed control at 35 g/ha [2, 13] | pest or weed control at 70 g/ha [2, 13] | pest or weed control at 140 g/ha [2, 13] | pest or weed control at 35 g/ha [2, 14] | pest or weed control at 70 g/ha [2, 14] | pest or weed control at 140 g/ha [2, 14]
75 to 84%: pest or weed control at 70 g/ha [1, 8] | pest or weed control at 140 g/ha [1, 8]
30 to 44%: pest or weed control at 35 g/ha [1, 3] | pest or weed control at 35 g/ha [1, 5] | pest or weed control at 70 g/ha [1, 5]
